Literature values as cited in patent publication US11395811B2, “Compositions comprising a fatty acid oil mixture comprising EPA and DHA in free acid form and a surfactant, and methods and uses thereof” (ProNova BioPharma Norge AS, priority 2009, dated 2022).

Settings: Brij surfactants, Table 2

HLB Value	Substance
5.3	Polyoxyethylene (2) cetyl ether [Brij ® 52]
4.9	Polyoxyethylene (2) oleyl ether [Brij ® 92V]
4	Polyoxyethylene (2) oleyl ether [Brij ® 93]
9.7	Polyoxyethylene(4) lauryl ether [Brij ® 30]
12.4	polyethylene glycol oleyl ether [Brij ® 96V]
4.9	polyoxyethylene (2) stearyl ether [Brij ® 72]
18	polyoxyethylene (100) stearyl ether [Brij ® 700]

Same assay, conditions: Myrj surfactants, Table 5

Substance	HLB Value
polyoxyethylene monostearate [Myrj ® 45]	11.1
polyoxyethylene monostearate [Myrj ® 49]	15.0
polyoxyethylene monostearate [Myrj ® 52]	16.9
polyoxyethylene monostearate [Myrj ® 53]	17.9

Same assay, conditions: Tween surfactants, Table 4

Substance	HLB Value
polyoxyethylene (20) sorbitan monolaurate [Tween ® 20]	16.0
